Data from paper PMC10451377, “Rationally Designed Pyrimidine Compounds: Promising Novel Antibiotics for the Treatment of Staphylococcus aureus-Associated Bovine Mastitis” (Antibiotics, 2023).
Converted amounts (≈) assume the structure as drawn. Read-outs that look alike come from different tables or passages of the source.

Assays:
[1] = system: Bacillus subtilis xpt-lacZ; assay: Broth microdilution MIC; format: cell-based; details: read-out: Broth Microdilution MIC
[2] = system: Enterococcus faecalis ATCC 29212; assay: Broth microdilution MIC; details: ATCC29212, read-out: Broth Microdilution MIC
[3] = system: Staphylococcus epidermidis ATCC 12228; assay: Broth microdilution MIC; details: ATCC12228, read-out: Broth Microdilution MIC
[4] = system: Staphylococcus aureus CMRSA-10; assay: Broth microdilution MIC; format: cell-based; details: CMRSA10, read-out: Broth Microdilution MIC
Source text: (§1) Reference strains for this study (S. aureus ATCC 29213, ATCC 29740 [bovine mastitis strain Newbould], S. epidermidis ATCC 12228, E. coli ATCC 35695, E. faecalis ATCC 29212) were obtained from the American Type Culture Collection (ATCC, Rockville, MD). S. aureus strains CMRSA-10 and CMRSA-2 were obtained from the Laboratoire de santé publique du Québec (LSPQ, Sainte-Anne-de-Bellevue, QC, Canada) and are Canadian CA-MRSA USA-300 and HA-MRSA USA-100 clones, respectively. The strain E. coli imp4213 (lptD), used as a control in MIC assays, is a derivative of E. coli ATCC 35695 (E. coli MC4100) with an increased membrane permeability. […] Other MRSA strains used in this study are clinical isolates of human origin obtained from the microbiology laboratory of the Centre Hospitalier Universitaire de Sherbrooke (CHUS, Sherbrooke, QC, Canada). Bovine mastitis strains (S. aureus, S. chromogenes, S. haemolyticus, S. hominis, S. simulans) were obtained from the Canadian Bovine Mastitis and Milk Quality Research Network (CBRQMN, St-Hyacinthe, QC, Canada). Among these strains, S. aureus 2117 is a high producer of biofilm and was used in the biofilm-eradication assay. S. epidermidis isolates were provided by Centre de Recherche en Infectiologie (CRI) de Québec (Québec, QC, Canada).

[5] = system: Staphylococcus aureus CMRSA-2; assay: Broth microdilution MIC; format: cell-based; details: CMRSA2, read-out: Broth Microdilution MIC
Source text: as §1

Bovine S. aureus = assay: Susceptibility of isolate panel (MIC50, MIC90, range); format: cell-based, Staphylococcus aureus
Source text: as §1
(§2) The antibacterial activity of the most promising compound, PC206, was also evaluated against larger groups of clinical isolates of human and animal origin. The MIC50 and MIC90 values represented the concentrations of drug required to inhibit the growth of 50% and 90% of the bacterial strains tested, respectively.

MRSA = assay: as above; format: cell-based, Staphylococcus aureus
Source text: as §1, §2

[6] = system: Escherichia coli ΔlptD4213; assay: microbe, parasite or virus in culture; format: cell-based; details: read-out: Broth Microdilution MIC
Source text: as §1

S. haemolitycus = assay: Susceptibility of isolate panel (MIC50, MIC90, range); format: cell-based, S. haemolyticus
Source text: as §1, §2

[7] = system: Staphylococcus aureus ATCC 29213; assay: Broth microdilution MIC; details: ATCC29213, read-out: Broth Microdilution MIC
S. hominis = assay: Susceptibility of isolate panel (MIC50, MIC90, range); format: cell-based
Source text: as §1, §2

S. epidermidis = assay: as above; format: cell-based
Source text: as §1, §2

S. simulans = assay: as above; format: cell-based
Source text: as §1, §2

S. chromogenes = assay: as above; format: cell-based
Source text: as §1, §2

[8] = system: Escherichia coli ATCC 35695; assay: Broth microdilution MIC; details: ATCC35695, read-out: Broth Microdilution MIC
[9] = system: S. aureus bovine strain 2117 embedded in preformed biofilm; assay: Biofilm-eradication test (MBEC assay); format: cell-based, Staphylococcus aureus
Procedure: The viability of bacteria in preformed biofilms treated with PC206 was evaluated using the MBEC assay™ system (formerly the Calgary Biofilm Device). The device consists of a plastic lid with 96 pegs and a 96-well plate. […] Plates were incubated at 35 °C for 24 h with agitation (120 rpm). […] The pegs were washed three times with PBS and the biofilm was sonicated for 10 min, and then transferred into a new 96-well base plate. The 96-well plate was centrifuged for 5 min at 180 g to recover the detached bacteria.

MTT assay [10] = format: cell-based; details: human, HepG2 cells
[11] = system: all tested bacterial strains, including non-staphylococci strains; assay: Broth microdilution MIC, summary over all strains tested; details: read-out: MIC against all tested bacterial strains
MTT assay [12] = format: cell-based; details: bovine, MAC-T cells, 24 h
LDH release assay [13] = format: cell-based; details: bovine, MAC-T cells, 24 h
LDH release assay [14] = format: cell-based; details: human, HepG2 cells
[15] = system: guanine riboswitch-lacZ fusion construct (xpt-lacZ); assay: Riboswitch regulation assay (lacZ-gene reporter); format: cell-based, B. subtilis; details: 512 and 1024 μg/mL, one experiment
Source text: The novel pyrimidine compounds, especially PC206, display specificity and potency against some staphylococci but not the other bacterial genus (Table 1 and Table 2). Because they are structurally derived from PC1 and PC2, these novel antibiotic candidates are expected to have the same mode of action. […] To verify this hypothesis, a strain of B. subtilis with a guanine riboswitch-lacZ fusion construct (named xpt-lacZ) integrated in its chromosome was exposed to these new antimicrobials. […] Therefore, it is an adequate reporter species. The metabolization of substrate ONPG into colored ONP was normalized by the bacterial suspension absorbance at 600 nm (Miller units) and relativized to the untreated condition.
β-galactosidase gene expression in the presence of the new pyrimidine analogs was studied, using an xpt-lacZ transcriptional fusion construct integrated in the genome of B. subtilis as previously described. Briefly, cultures were grown for 5 h at 35 °C in CAMHB, from an initial optical density of 0.05 at 600 nm (OD600), and then diluted 1:20 and in the presence of different concentrations of the compounds tested. Cultures were centrifuged for 10 min at 13,100 rpm, the supernatant was discarded, and pellets were suspended in a Z-buffer (NaH2PO4 40 mM, Na2HPO4 60 mM, MgSO4 1 mM, KCl 10 mM). Cultures OD600 were measured, and bacteria were then lysed with lysozyme (1 mg/mL) and β-mercaptoethanol 50 mM for 30 min. Lysates were centrifuged for 10 min at 13,100 rpm, and supernatants were incubated for 5 min at 30 °C with the substrate orthonitrophenyl-β-galactoside (ONPG; Sigma Aldrich). Reactions were stopped with Na2CO3 1M, supernatants OD420 were measured, and Miller units were calculated. A decrease in β-galactosidase activity indicated binding of the test compound to the riboswitch. Guanine and oxacillin were used as […] controls, respectively. The formula to measure Miller units is as follows: Millerunits=1000×OD420/t·v·OD600
Here, t represents the time of incubation with ONPG, and v represents the volume of the reaction.

CN[C@H](CC(C)C)C(=O)N[C@H]1C(=O)N[C@@H](CC(N)=O)C(=O)N[C@H]2C(=O)N[C@H]3C(=O)N[C@H](C(=O)N[C@H](C(=O)O)c4cc(O)cc(O)c4-c4cc3ccc4O)[C@H](O)c3ccc(c(Cl)c3)Oc3cc2cc(c3O[C@@H]2O[C@H](CO)[C@@H](O)[C@H](O)[C@H]2O[C@H]2C[C@](C)(N)[C@H](O)[C@H](C)O2)Oc2ccc(cc2Cl)[C@H]1O [VAN, vancomycin]
MIC [1]: 0.25 µg/mL (≈ 0.173 µM) | MIC [2]: 4 µg/mL (≈ 2.76 µM) | MIC [3]: 1 µg/mL (≈ 0.69 µM) | MIC [4]: 1 µg/mL (≈ 0.69 µM) | MIC [5]: 1 µg/mL (≈ 0.69 µM) | MIC Range (Bovine S. aureus; Bovine S. aureus, 48 isolates): 0.25 to 1 µg/mL | MIC50 (Bovine S. aureus; Staphylococcus aureus): 0.5 µg/mL (≈ 0.345 µM) | MIC90 (Bovine S. aureus; Staphylococcus aureus): 0.5 µg/mL (≈ 0.345 µM) | MIC Range (MRSA; 42 isolates): 0.5 to 4 µg/mL | MIC50 (MRSA; Staphylococcus aureus): 1 µg/mL (≈ 0.69 µM) | MIC90 (MRSA; Staphylococcus aureus): 4 µg/mL (≈ 2.76 µM) | MIC [6]: 1 µg/mL (≈ 0.69 µM) | MIC Range (S. haemolitycus; S. haemolitycus, 10 isolates): 0.25 to 4 µg/mL | MIC50 (S. haemolitycus; Staphylococcus haemolyticus): 2 µg/mL (≈ 1.38 µM) | MIC90 (S. haemolitycus; Staphylococcus haemolyticus): 4 µg/mL (≈ 2.76 µM) | MIC [7]: 0.5 µg/mL (≈ 0.345 µM) | MIC Range (S. hominis; S. hominis, 10 isolates): 0.25 to 1 µg/mL | MIC50 (S. hominis; Staphylococcus hominis): 0.5 µg/mL (≈ 0.345 µM) | MIC90 (S. hominis; Staphylococcus hominis): 0.5 µg/mL (≈ 0.345 µM) | MIC Range (S. epidermidis; S. epidermidis, 10 isolates): 0.5 to 1 µg/mL | MIC50 (S. epidermidis; Staphylococcus epidermidis): 1 µg/mL (≈ 0.69 µM) | MIC90 (S. epidermidis; Staphylococcus epidermidis): 1 µg/mL (≈ 0.69 µM) | MIC Range (S. simulans; S. simulans, 5 isolates): 0.5 µg/mL (≈ 0.345 µM) | MIC50 (S. simulans; Staphylococcus simulans): 0.5 µg/mL (≈ 0.345 µM) | MIC90 (S. simulans; Staphylococcus simulans): 0.5 µg/mL (≈ 0.345 µM) | MIC50 (S. chromogenes): 0.5 µg/mL (≈ 0.345 µM) | MIC90 (S. chromogenes): 0.5 µg/mL (≈ 0.345 µM) | MIC Range (S. chromogenes; S. chromogenes, 5 isolates): 0.5 µg/mL (≈ 0.345 µM) | MIC [8]: > 128 µg/mL | Effect on viable counts in preformed biofilm ([9]; concentrations up to 512 µg/mL): did not impact viable counts

CNC(C)C1CCC(N)C(OC2C(N)CC(N)C(OC3OCC(C)(O)C(NC)C3O)C2O)O1 (centres unmarked) [Gentamicin, reference compound]
Lowest concentration that significantly reduced CFU/peg ([9]; 24 h preformed biofilm): 2 µg/mL

CCCNc1cc(N)nc(N)n1 [PC371]
CC50 at 24 h (MTT assay [10]): > 600 µM | MIC [11]: > 128 µg/mL | MIC ([1]; B. subtilis xpt-lacZ): > 128 µg/mL | MIC [2]: > 128 µg/mL | CC50 at 24 h (MTT assay [12]): > 600 µM | MIC [3]: > 128 µg/mL | MIC [4]: > 128 µg/mL | MIC [5]: > 128 µg/mL | CC50 at 24 h (LDH release assay [13]): > 600 µM | CC50 at 24 h (LDH release assay [14]): > 600 µM | MIC [6]: > 128 µg/mL | MIC [7]: > 128 µg/mL | MIC [8]: > 128 µg/mL | Effect on Miller units [15]: did not have any effect on the reporter gene expression

CC(C)(O/N=C(\C(=O)N[C@@H]1C(=O)N2C(C(=O)[O-])=C(C[n+]3ccccc3)CS[C@H]12)c1csc(N)n1)C(=O)O [CAZ, ceftazidime, reference compound]
MIC [6]: 0.03 µg/mL (≈ 0.0549 µM) | MIC [8]: 0.25 µg/mL (≈ 0.457 µM)
